Source: ChEMBL document CHEMBL1201862, “PubChem BioAssay data set” (2004)
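Following 48 hours of exposure in 96-well plates, responses at five concentrations were used to interpolate endpoints linearly. Abbreviation: GI50, concentration required for 50% inhibition of growth.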 Calls of active or inactive are those of the source. Cut-off read from the data, not from the text of the source: active = GI50 up to about 1.1 µM and inactive = higher.

What was measured:
Assay in all cases: NCI anticancer screen, dose series, 48 h
OVCAR-5 = tested on: OVCAR-5
OVCAR-8 = tested on: OVCAR-8
SNB-75 = tested on: SNB-75
UACC-62 = tested on: UACC-62
M19-MEL = tested on: M19-MEL
DMS-273 = tested on: DMS-273
MDA-MB-435 = tested on: MDA-MB-435
KM12 = tested on: KM12
RXF 393 = tested on: RXF 393
SF-295 = tested on: SF-295
HCT-116 = tested on: HCT-116
SK-MEL-5 = tested on: SK-MEL-5
LOX IMVI = tested on: LOX IMVI
SNB-78 = tested on: SNB-78
KM-20L2 = tested on: KM-20L2
COLO 205 = tested on: COLO 205
EKVX = tested on: EKVX
NCI-H460 = tested on: NCI-H460
MCF7 = tested on: MCF7
DMS-114 = tested on: DMS-114
ACHN = tested on: ACHN
SK-MEL-28 = tested on: SK-MEL-28
U-251 = tested on: U-251
CAKI-1 = tested on: CAKI-1
NCI-H23 = tested on: NCI-H23
Malme-3M = tested on: Malme-3M
K562 = tested on: K562
UO-31 = tested on: UO-31
SF-268 = tested on: SF-268
OVCAR-4 = tested on: OVCAR-4
RXF 631 = tested on: RXF 631
SW-620 = tested on: SW-620
HOP-18 = tested on: HOP-18
HCT-15 = tested on: HCT-15
UACC-257 = tested on: UACC-257
DLD-1 = tested on: DLD-1
T47D = tested on: T47D
HOP-92 = tested on: HOP-92
SF-539 = tested on: SF-539
XF498 = tested on: XF498
SN12C = tested on: SN12C
NCI-H522 = tested on: NCI-H522
SNB-19 = tested on: SNB-19
HL-60 = tested on: HL-60
HCC 2998 = tested on: HCC 2998
OVCAR-3 = tested on: OVCAR-3
LXFL 529 = tested on: LXFL 529
TK-10 = tested on: TK-10
MDA-N = tested on: MDA-N
SR = tested on: SR
IGROV-1 = tested on: IGROV-1
PC-3 = tested on: PC-3
HT-29 = tested on: HT-29
SK-MEL-2 = tested on: SK-MEL-2
A498 = tested on: A498
RPMI-8226 = tested on: RPMI-8226
SK-OV-3 = tested on: SK-OV-3
NCI-H226 = tested on: NCI-H226
CCRF-CEM = tested on: CCRF-CEM
MDA-MB-231 = tested on: MDA-MB-231
DU-145 = tested on: DU-145
HOP-62 = tested on: HOP-62
A549 = tested on: A549
NCI/ADR-RES = tested on: NCI/ADR-RES
MOLT-4 = tested on: MOLT-4
786-0 = tested on: 786-0
M14 = tested on: M14
Hs-578T = tested on: Hs-578T
BT-549 = tested on: BT-549

Measured: GI50

COc1cc(/C=C2\CCC(CN(C)C)C2=O)ccc1OC(=O)c1ccccc1 (centres undefined)
8.17 µM: HCT-15
inactive: OVCAR-5 18.8 µM | OVCAR-8 8.59 µM | SNB-75 16 µM | UACC-62 16.5 µM | M19-MEL 8.57 µM | DMS-273 11.1 µM | MDA-MB-435 14.3 µM | KM12 2.99 µM | RXF 393 7.8 µM | SF-295 17.7 µM | HCT-116 6.68 µM | SK-MEL-5 15.5 µM | LOX IMVI 3.86 µM | SNB-78 19.2 µM | KM-20L2 15.9 µM | COLO 205 5.69 µM | EKVX 14.2 µM | NCI-H460 19.3 µM | MCF7 6.25 µM | DMS-114 15.8 µM | ACHN 15.3 µM | SK-MEL-28 15.1 µM | U-251 16.2 µM | CAKI-1 17.1 µM | NCI-H23 16.1 µM | Malme-3M 15.9 µM | K562 2.32 µM | UO-31 16.3 µM | SF-268 12.3 µM | OVCAR-4 12.4 µM | RXF 631 11.2 µM | SW-620 5.07 µM | HOP-18 16.9 µM | UACC-257 13.5 µM | DLD-1 4.67 µM | T47D 3.76 µM | HOP-92 17.4 µM | SF-539 14.1 µM | XF498 20.3 µM | SN12C 10.8 µM | NCI-H522 4 µM | SNB-19 11.4 µM | HL-60 1.91 µM | HCC 2998 16.3 µM | OVCAR-3 8.91 µM | LXFL 529 2.88 µM | TK-10 11.3 µM | MDA-N 15.4 µM | SR 2.56 µM | IGROV-1 13.8 µM | PC-3 16.4 µM | HT-29 8.07 µM | SK-MEL-2 17.9 µM | A498 18.3 µM | RPMI-8226 2.31 µM | SK-OV-3 23.1 µM | NCI-H226 18.2 µM | CCRF-CEM 1.96 µM | MDA-MB-231 5.47 µM | DU-145 16.3 µM | HOP-62 16.3 µM | A549 23.6 µM | NCI/ADR-RES 16.5 µM | MOLT-4 2.28 µM | 786-0 3.76 µM | M14 9.51 µM | Hs-578T 8.02 µM | BT-549 16.1 µM
